Source: paper PMC9352027, “Targeting lipid biosynthesis pathways for hepatitis B virus cure” (PLoS ONE, 2022)
Like-named read-outs stand apart in the source and are kept apart here.

Legend:
[1] = system: HBeAg in HBV-infected HepG2-NTCP cells; assay: microbe, parasite or virus in culture; type: cell-based, Hepatitis B virus genotype D (AD38); settings: read-out: HBeAg, EC50
Procedure: (§1) Production of wild-type HBV virions from HepAD38 cells was performed as previously described. HepG2-NTCP cells were bulk plated on collagen coated flasks at a density of 6x10^6 cells/ T175 flask. Following a 3-day incubation at 37°C, cells were infected with genotype D (AD38) virus at […] in the presence of 4% PEG8000 and 2.5% DMSO. HepG2-NTCP cells were washed 3 times with OPTI-MEM and maintained in Dulbecco’s modified Eagle’s medium (DMEM) supplemented with 2% FBS and 2.5% DMSO for the following 4 days. HBV-infected HepG2-NTCP cells were trypsinized, resuspended in DMEM supplemented with 2% FBS and 1% DMSO, and seeded onto serially diluted small molecule inhibitors at a 0.5% final DMSO concentration (S1 Table) in 384-well collagen coated plates at a density of 20,000 cells/well for 3 additional days.
(§2) Cell culture supernatant (3 μL) was transferred to two 1536-well plates and HBsAg and HBeAg levels subsequently measured by HTRF (Cisbio). HBsAg was measured using Terbium conjugated (XTL-17) and D2 receptor conjugated (XTL19) anti-HBsAg antibodies, while HBeAg was measured using Terbium conjugated (GWB-F19420, Genway Biotech) and D2 receptor conjugated (GWB-24DEF, Genway Biotech) anti-HBeAg antibodies. […] was measured using an Envision plate reader at emissions of 665 nm and 615 nm. The ratio of 665/615 was used to plot compound dose response curves and EC50 values were calculated from the fit of the dose−response curves to a four-parameter equation.
(§3) (A) Schematic overview of the pathways involved in lipid biosynthesis, such as DNL, TG esterification and cholesterol biosynthesis. […] (B-D) HepG2-NTCP cells infected with HBV for three days were treated with selected compounds in an eight-point dose response. After three days of treatment, extracellular HBsAg and HBeAg levels as well as cell viability were measured.

[2] = system: HBsAg secretion in HBV-infected HepG2-NTCP cells; assay: microbe, parasite or virus in culture; type: cell-based, Hepatitis B virus genotype D (AD38); settings: for EC50: read-out: HBsAg, EC50; for inhibition of HBsAg secretion: maximal (up to)
Procedure: as §1, §2, §3

[3] = system: HBV-infected HepG2-NTCP cells; assay: Cell viability by CellTiter Glo; type: cell-based, human; settings: three days of treatment
Procedure: as §1
(§4) Cells were analyzed for cell viability by addition of CellTiter Glo (Promega) to the assay plates and analyzed using an Envision plate reader (Perkin Elmer). CC50 values were calculated from the fit of the dose−response curves to a four-parameter equation. All CC50 values represent geometric mean values of a minimum of four determinations.
as §3

[4] = Cell viability by CellTiter Glo; type: cell-based, human; settings: human; HBV-infected HepG2-NTCP cells, three days of treatment
Procedure: as §1, §4, §3

ACC1 and ACC2 = system: ACC1 and ACC2; set-up: method as in PMID 29705265, PMID 30059671; settings: cited from earlier work
[5] = HBV-infected HepG2-NTCP cells, three days of treatment, extracellular

Compound | EC50 [1, 5] | EC50 [2, 5] | CC50 [3] | EC50 ([1]; Hepatitis B virus, 72 h) | EC50 ([2]; Hepatitis B virus, 72 h) | CC50 at 3 days [4] | further results
COC(=O)c1cc(Cl)c(O)c(S(=O)(=O)Nc2cc(-c3ccccc3)c(F)cc2F)c1 [ACLY Inhibitor, methyl 3-chloro-5-(N-(4,6-difluoro-[1,1'-biphenyl]-3-yl)sulfamoyl)-4-hydroxybenzoate] | > 10 µM | > 10 µM | > 10 µM | – | – | – | –
CC1=NN(c2ccc(OC(F)F)c(-c3cccnc3)c2)C(=O)C1C(=O)Nc1cccc(C(C)(F)F)c1 (stereo not shown) [ACSS2 Inhibitor, N-(3-(1,1-difluoroethyl)phenyl)-1-(4-(difluoromethoxy)-3-(pyridin-3-yl)phenyl)-3-methyl-5-oxo-4,5-dihydro-1H-pyrazole-4-carboxamide] | > 10 µM | > 10 µM | > 10 µM | – | – | – | –
C=C(C)[C@@H]1CC[C@]2(CO)CC[C@]3(C)[C@H](CC[C@@H]4[C@@]5(C)CC[C@H](O)C(C)(C)[C@@H]5CC[C@]43C)[C@@H]12 [Betulin, (1R,3aS,5aR,5bR,7aR,9S,11aR,11bR,13aR,13bR)-3a-(hydroxymethyl)-5a,5b,8,8,11a-pentamethyl-1-(prop-1-en-2-yl)icosahydro-1H-cyclopenta[a]chrysen-9-ol] | – | – | – | > 10 µM | > 10 µM | > 10 µM | –
CC(C)N(C)c1nc2cc(C(=O)O)ccc2nc1-c1ccc(F)cc1 [BioE-115, 2-(4-fluorophenyl)-3-(isopropyl(methyl)amino)quinoxaline-6-carboxylic acid] | > 10 µM | > 10 µM | > 10 µM | – | – | – | –
O=C(O)c1ccccc1NS(=O)(=O)c1ccc(Cl)c([N+](=O)[O-])c1 [CPT2 Inhibitor, 2-((4-chloro-3-nitrophenyl)sulfonamido)benzoic acid] | > 10 µM | > 10 µM | > 10 µM | – | – | – | –
Nc1ncnc2c1C(=O)N(c1ccc([C@H]3CC[C@H](CC(=O)O)CC3)cc1)CCO2 [DGAT1 Inhibitor, 2-((1r,4r)-4-(4-(4-amino-5-oxo-7,8-dihydropyrimido[5,4-f][1,4]oxazepin-6(5H)-yl)phenyl)cyclohexyl)acetic acid] | > 10 µM | > 10 µM | – | – | – | – | –
CC1(NC(=O)c2ccc3c(-c4ccccc4Cl)cn(-c4ccc(F)cc4)c3c2)CCS(=O)(=O)C1 (stereo not shown) [DGAT2 Inhibitor, 3-(2-chlorophenyl)-1-(4-fluorophenyl)-N-(3-methyl-1,1-dioxidotetrahydrothiophen-3-yl)-1H-indole-6-carboxamide] | > 10 µM | > 10 µM | > 10 µM | – | – | – | –
CCOC(=O)[C@@]1(CCCCCCOc2ccc(Cl)cc2)CO1 [Etomoxir, ethyl (R)-2-(6-(4-chlorophenoxy)hexyl)oxirane-2-carboxylate] | – | – | – | > 10 µM | > 10 µM | > 10 µM | –
Cc1cc(C)c(-c2[nH]c(C3CC3)nc2C)cc1C(=O)N1CC(F)(c2ccc(C#N)cc2)C1 [FASN inhibitor, 4-(1-(5-(2-cyclopropyl-4-methyl-1H-imidazol-5-yl)-2,4-dimethylbenzoyl)-3-fluoroazetidin-3-yl)benzonitrile] | > 10 µM | 0.081 µM | > 10 µM | – | – | – | selectivity HBsAg versus HBeAg ([2]; HBV-infected HepG2-NTCP cells): selective for HBsAg; inhibition of HBsAg secretion ([2]; HBV-infected HepG2-NTCP cells): up to 80%
COc1ccccc1[C@H](Cn1c(=O)n(C(C)(C)C(=O)O)c(=O)c2c(C)c(-c3ncco3)sc21)OC1CCOCC1 [FIR, Firsocostat] | – | – | – | – | – | – | liver fat reduction (ACC1 and ACC2; observed clinically): ~ 30%; DNL inhibition (ACC1 and ACC2; partial target inhibition observed clinically): ~ 70%
CCCCCCCCc1ccc(CC[C@](N)(CO)COP(=O)(O)O)cc1 [FTY720 (S)-phosphate, (S)-2-amino-2-(hydroxymethyl)-4-(4-octylphenyl)butyl dihydrogen phosphate] | > 10 µM | > 10 µM | > 10 µM | – | – | – | –
CCCCCCCCc1ccc(CCC(N)(CO)CO)cc1 [FTY720, 2-amino-2-(4-octylphenethyl)propane-1,3-diol] | – | – | – | > 10 µM | > 10 µM | > 10 µM | –
CCCc1cc(-c2nc(-c3ccc(C)cc3)cs2)ccn1 [Fatostatin, 2-(2-propylpyridin-4-yl)-4-(p-tolyl)thiazole] | – | – | – | > 10 µM | > 10 µM | > 10 µM | –
Cc1nn(C)c2nc(NNC(=O)Nc3cc(Cl)nc(Cl)c3)cc(C(C)C)c12 [JTE-013, N-(2,6-dichloropyridin-4-yl)-2-(4-isopropyl-1,3-dimethyl-1H-pyrazolo[3,4-b]pyridin-6-yl)hydrazine-1-carboxamide] | > 10 µM | 6.7 µM | > 10 µM | – | – | – | –
C[C@H]1CCN1c1nc(N2C[C@@H]3[C@@H](CC(=O)O)[C@@H]3C2)cc(C(F)(F)F)n1 [KHK Inhibitor, 2-((1R,5S,6R)-3-(2-((S)-2-methylazetidin-1-yl)-6-(trifluoromethyl)pyrimidin-4-yl)-3-azabicyclo[3.1.0]hexan-6-yl)acetic acid] | > 10 µM | > 10 µM | – | – | – | – | –
CCOC(=O)c1ccc(CN(Cc2ccc(-c3cccc(S(C)(=O)=O)c3)cc2)S(=O)(=O)c2c(C)cc(C)cc2C)o1 [LXR Inverse Agonist, ethyl 5-(((2,4,6-trimethyl-N-((3'-(methylsulfonyl)-[1,1'-biphenyl]-4-yl)methyl)phenyl)sulfonamido)methyl)furan-2-carboxylate] | > 10 µM | > 10 µM | > 10 µM | – | – | – | –
O=C(O)C[C@H]1CC[C@H](c2ccc(-c3ccc(Nc4ccc(C(F)(F)F)nc4)cn3)cc2)CC1 [Pradagilast, 2-((1r,4r)-4-(4-(5-((6-(trifluoromethyl)pyridin-3-yl)amino)pyridin-2-yl)phenyl)cyclohexyl)acetic acid] | – | – | – | > 10 µM | > 10 µM | > 10 µM | –
CCCCCCCCCCCCCCCCCCCC(=O)N[C@H]1CC[C@@]2(C)[C@@H](C1)C[C@@H](O)[C@@H]1[C@@H]2C[C@H](O)[C@]2(C)[C@@H]([C@H](C)CCC(=O)O)CC[C@@H]12 [SCD1 Inhibitor, (R)-4-((3S,5S,7R,8R,9S,10S,12S,13R,14S,17R)-7,12-dihydroxy-3-icosanamido-10,13-dimethylhexadecahydro-1H-cyclopenta[a]phenanthren-17-yl)pentanoic acid] | > 10 µM | > 10 µM | > 10 µM | – | – | – | –
CCN(CC)Cc1ccc(C(=O)N(CCc2ccccc2OC)[C@@H]2CCNC2)cc1 [SKI-1/S1P inhibitor, (R)-4-((diethylamino)methyl)-N-(2-methoxyphenethyl)-N-(pyrrolidin-3-yl)benzamide] | > 10 µM | 0.79 µM | > 10 µM | – | – | – | selectivity HBsAg versus HBeAg ([2]; HBV-infected HepG2-NTCP cells): selective for HBsAg; inhibition of HBsAg secretion ([2]; HBV-infected HepG2-NTCP cells): up to 80%
Oc1ccc(Nc2nc(-c3ccc(Cl)cc3)cs2)cc1 [SKI-II, 4-((4-(4-chlorophenyl)thiazol-2-yl)amino)phenol] | – | – | – | > 10 µM | 8.84 µM | > 10 µM | –
